# Measured values reported in US9382188B2, “Aromatic ring compound” (TAKEDA PHARMACEUTICAL COMPANY LIMITED, priority 2012, dated 2016).
# Target: T1, human GPR40 (Homo sapiens, UniProt O14842)
# T1 construct: expressed in transfected cells
# Assay: Evaluation of human GPR40 agonist activity with increase in intracellular Ca2+ concentration as an index (FLIPR Tetra)
# Format: cell-based
# Details: test compound 1 μM; CHO(dhfr-) cells stably expressing human GPR40; 100% = activity of 1 μM WO2009/048527 Example 99.2, 0% = DMSO
# Procedure: Evaluation of human GPR40 agonist activity with increase in intracellular Ca^2+ concentration as an index
# CHO(dhfr-) cells that stably expressed human GPR40 were suspended in MEMα (Nikken Bio Medical Laboratory) containing 10% dialysis serum (GEMINI BIO-PRODUCTS), 10 mM HEPES (Invitrogen), 100 U/mL penicillin, 100 μg/mL streptomycin (Invitrogen), and plated on a 384 well black/clear cell culture plate at 10,000 cells/well. After culture overnight in a CO2 incubator at 37° C., the culture supernatant was removed, and a loading buffer [dye attached to Calcium 5 Assay Kit (Molecular Devices) was dissolved in an assay buffer (20 mM HEPES, 0.2% fatty acid-free BSA (Sigma-Aldrich), 2.5 mM probenecid (DOJINDO)-containing HBSS (Invitrogen)) added with 0.025% Cremophor EL (DOJINDO)] was added at 37.5 μL/well. After incubation in a CO2 incubator at 37° C. for 1 hr, the cells were stood at room temperature for 15 min, an assay buffer containing the test compound at a final concentration of 1 μM was added at 12.5 μL/well in FLIPR Tetra (Molecular Devices), and the fluorescence amount was successively measured. Human GPR40 agonist activity calculated using an increase in the intracellular Ca^2+ concentration as an index, wherein the activity of 1 μM of the compound described in WO 2009/048527 (WO2009/048527 Example 99.2) was 100%, and the activity when DMSO was added instead of the test compound was 0%.
# T1 sequence (O14842 whole entry): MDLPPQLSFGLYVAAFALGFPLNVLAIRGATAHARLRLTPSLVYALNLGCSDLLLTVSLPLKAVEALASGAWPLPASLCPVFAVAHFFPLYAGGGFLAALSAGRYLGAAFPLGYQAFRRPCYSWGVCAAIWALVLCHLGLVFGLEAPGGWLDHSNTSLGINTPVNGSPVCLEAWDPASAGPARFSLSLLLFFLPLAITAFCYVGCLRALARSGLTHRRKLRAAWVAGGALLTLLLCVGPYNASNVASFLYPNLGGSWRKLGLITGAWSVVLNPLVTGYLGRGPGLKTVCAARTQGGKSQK
row,SMILES,activation at 1 µM
1,"COc1ccc(F)c(-c2ccc(OCc3cccc(C(CC(=O)O)C4CC4)c3)cc2CC2(C)CCCC2)c1 (stereo not shown) [Example 97, 3-cyclopropyl-3-(3-(((2′-fluoro-5′-methoxy-2-((1-methylcyclopentyl)methyl)biphenyl-4-yl)oxy)methyl)phenyl)propanoic acid]",118%
2,"COc1ccc(-c2ncc(OCc3cccc(C(CC(=O)O)C4CC4)c3)cc2CC(C)(C)C)cc1 (stereo not shown) [Example 48, 3-cyclopropyl-3-(3-(((5-(2,2-dimethylpropyl)-6-(4-methoxyphenyl)pyridin-3-yl)oxy)methyl)phenyl)propanoic acid]",-1%
3,"COc1ccc(F)c(-c2ccc(OCc3cc(C(CC(=O)O)C4CC4)ccn3)cc2CC(C)(C)C#N)c1 (stereo not shown) [Example 27, 3-(2-(((2-(2-cyano-2-methylpropyl)-2′-fluoro-5′-methoxybiphenyl-4-yl)oxy)methyl)pyridin-4-yl)-3-cyclopropylpropanoic acid]",119%
4,"COc1ccc(F)c(-c2ccc(OCc3cc(C(CC(=O)O)C4CC4)ncn3)nc2CC(C)(C)C)c1 (stereo not shown) [Example 30, 3-cyclopropyl-3-(6-(((6-(2,2-dimethylpropyl)-5-(2-fluoro-5-methoxyphenyl)pyridin-2-yl)oxy)methyl)pyrimidin-4-yl)propanoic acid]",103%
5,"COc1ccc(F)c(-c2ccc(OCc3cccc(C(CC(=O)O)C(C)(C)C#N)c3)cc2CC(C)(C)C)c1 (stereo not shown) [Example 84, 4-cyano-3-(3-(((2′-fluoro-5′-methoxy-2-neopentyl-[1,1′-biphenyl]-4-yl)oxy)methyl)phenyl)-4-methylpentanoic acid]",90%
6,"COc1ccc(F)c(-c2ccc(OCc3cccc(C(CC(N)=O)CC(=O)O)c3)cc2CC(C)(C)C)c1 (stereo not shown) [Example 83, 5-amino-3-(3-(((2′-fluoro-5′-methoxy-2-neopentyl-[1,1′-biphenyl]-4-yl)oxy)methyl)phenyl)-5-oxopentanoic acid]",34%
7,"CC(C)Oc1ccc(F)c(-c2ncc(OCc3cccc(C(CC(=O)O)C4CC4)c3)cc2CC(C)(C)C)c1 (stereo not shown) [Example 69, 3-cyclopropyl-3-(3-(((5-(2,2-dimethylpropyl)-6-(2-fluoro-5-isopropoxyphenyl)pyridin-3-yl)oxy)methyl)phenyl)propanoic acid]",61%
8,"COc1ccc(OC)c(-c2ncc(OCc3cccc(C(CC(=O)O)C4CC4)c3)cc2CC(C)(C)C)c1 (stereo not shown) [Example 53, 3-cyclopropyl-3-(3-(((6-(2,5-dimethoxyphenyl)-5-(2,2-dimethylpropyl)pyridin-3-yl)oxy)methyl)phenyl)propanoic acid]",99%
9,"CCOC(=O)CC(CC(=O)O)c1cccc(COc2ccc(-c3cc(OC)ccc3F)c(CC(C)(C)C)c2)c1 (stereo not shown) [Example 81, 5-ethoxy-3-(3-(((2′-fluoro-5′-methoxy-2-neopentyl-[1,1′-biphenyl]-4-yl)oxy)methyl)phenyl)-5-oxopentanoic acid]",134%
10,"CC(C)(C)Cc1cc(OCc2cccc(C(CC(=O)O)C3CC3)c2)cnc1-c1cc(C#N)ccc1F (stereo not shown) [Example 60, 3-(3-(((6-(5-cyano-2-fluorophenyl)-5-(2,2-dimethylpropyl)pyridin-3-yl)oxy)methyl)phenyl)-3-cyclopropylpropanoic acid]",56%
11,"CC(C)(C)Cc1cc(OCc2cccc(C(CC(=O)O)C3CC3)c2)cnc1-c1cccc(C(F)(F)F)c1 (stereo not shown) [Example 52, 3-cyclopropyl-3-(3-(((5-(2,2-dimethylpropyl)-6-(3-(trifluoromethyl)phenyl)pyridin-3-yl)oxy)methyl)phenyl)propanoic acid]",14%
12,"CC(C)(C)Cc1cc(OCc2cccc(C(CC(=O)O)C3CC3)c2)cnc1-c1cc(OCC(F)(F)F)ccc1F (stereo not shown) [Example 70, 3-cyclopropyl-3-(3-(((5-(2,2-dimethylpropyl)-6-(2-fluoro-5-(2,2,2-trifluoroethoxy)phenyl)pyridin-3-yl)oxy)methyl)phenyl)propanoic acid]",-8%
13,"COc1ccc(F)c(-c2ccc(OCc3cccc(C(CC(=O)O)C4CC4)c3)cc2CC2(C#N)CC2)c1 (stereo not shown) [Example 103, 3-(3-(((2-((1-cyanocyclopropyl)methyl)-2′-fluoro-5′-methoxybiphenyl-4-yl)oxy)methyl)phenyl)-3-cyclopropylpropanoic acid]",119%
14,"CC(C)(C)Cc1cc(OCc2cccc(C(CC(=O)O)C3CC3)c2)cnc1-c1cccc(NS(C)(=O)=O)c1 (stereo not shown) [Example 62, 3-cyclopropyl-3-(3-(((5-(2,2-dimethylpropyl)-6-(3-((methylsulfonyl)amino)phenyl)pyridin-3-yl)oxy)methyl)phenyl)propanoic acid]",4%
15,"COc1ccc(F)c(-c2ccc(OCc3cccc(C(CC(=O)O)C4CC4)c3)cc2C2CC(C)(C)OC(C)(C)C2)c1 (stereo not shown) [Example 96, 3-cyclopropyl-3-(3-(((2′-fluoro-5′-methoxy-2-(2,2,6,6-tetramethyltetrahydro-2H-pyran-4-yl)biphenyl-4-yl)oxy)methyl)phenyl)propanoic acid]",140%
16,"COc1cc(OC)cc(-c2ncc(OCc3cccc(C(CC(=O)O)C4CC4)c3)cc2CC(C)(C)C)c1 (stereo not shown) [Example 56, 3-cyclopropyl-3-(3-(((6-(3,5-dimethoxyphenyl)-5-(2,2-dimethylpropyl)pyridin-3-yl)oxy)methyl)phenyl)propanoic acid]",31%

# More lines, now with the values ahead:
row,activation at 1 µM,SMILES
1,102%,"COc1ccc(F)c(-c2ccc(OCc3cccc(C(CC(=O)O)C4CC4)c3)cc2CCCC(C)(C)C)c1 (stereo not shown) [Example 113, 3-cyclopropyl-3-(3-(((2-(4,4-dimethylpentyl)-2′-fluoro-5′-methoxy-[1,1′-biphenyl]-4-yl)oxy)methyl)phenyl)propanoic acid]"
2,114%,"COc1ccc(F)c(-c2ccc(OCc3cccc(C(CC(=O)O)C4CCCCC4)c3)cc2CC(C)(C)C)c1 (stereo not shown) [Example 40, 3-cyclohexyl-3-(3-(((2-(2,2-dimethylpropyl)-2′-fluoro-5′-methoxybiphenyl-4-yl)oxy)methyl)phenyl)propanoic acid]"
3,103%,"COc1ccc(F)c(-c2ccc(OCc3cccc(C(CC(=O)O)C4CC4)c3)cc2CC(C)(C)C)c1 (stereo not shown) [Example 3, 3-cyclopropyl-3-(3-(((2-(2,2-dimethylpropyl)-2′-fluoro-5′-methoxybiphenyl-4-yl)oxy)methyl)phenyl)propanoic acid]"
4,129%,"CCC(C)(C)C(O)c1cc(OCc2cccc(C(CC(=O)O)C3CC3)c2)ccc1-c1cc(OC)ccc1F (stereo not shown) [Example 108, 3-cyclopropyl-3-(3-(((2′-fluoro-2-(1-hydroxy-2,2-dimethylbutyl)-5′-methoxybiphenyl-4-yl)oxy)methyl)phenyl)propanoic acid]"
5,99%,"COc1ccc(F)c(-c2ncc(OCc3cccc(C(CC(=O)O)C4CC4)c3)cc2CC(C)(C)C)c1 (stereo not shown) [Example 22, 3-cyclopropyl-3-(3-(((5-(2,2-dimethylpropyl)-6-(2-fluoro-5-methoxyphenyl)pyridin-3-yl)oxy)methyl)phenyl)propanoic acid]"
6,111%,"CCC(CC)(CC)Cc1cc(OCc2cccc(C(CC(=O)O)C3CC3)c2)ccc1-c1cc(OC)ccc1F (stereo not shown) [Example 111, 3-cyclopropyl-3-(3-(((2-(2,2-diethylbutyl)-2′-fluoro-5′-methoxybiphenyl-4-yl)oxy)methyl)phenyl)propanoic acid]"
7,104%,"COc1ccc(F)c(-c2ccc(OCc3cccc(C(CC(=O)O)C4CCC4)c3)cc2CC(C)(C)C)c1 (stereo not shown) [Example 42, 3-cyclobutyl-3-(3-(((2-(2,2-dimethylpropyl)-2′-fluoro-5′-methoxybiphenyl-4-yl)oxy)methyl)phenyl)propanoic acid]"
8,120%,"COc1ccc(F)c(-c2ccc(OCc3cccc(C(CC(=O)O)C4CC4)c3)cc2-c2cnc(C)s2)c1 (stereo not shown) [Example 19, 3-cyclopropyl-3-(3-(((2′-fluoro-5′-methoxy-2-(2-methyl-1,3-thiazol-5-yl)biphenyl-4-yl)oxy)methyl)phenyl)propanoic acid]"
9,108%,"CCC(C)(CC)Cc1cc(OCc2cccc(C(CC(=O)O)C3CC3)c2)ccc1-c1cc(OC)ccc1F (stereo not shown) [Example 112, 3-cyclopropyl-3-(3-(((2-(2-ethyl-2-methylbutyl)-2′-fluoro-5′-methoxybiphenyl-4-yl)oxy)methyl)phenyl)propanoic acid]"
10,98%,"COc1ccc(F)c(-c2ccc(OCc3cccc(C(CC(=O)O)C4CC4C#N)c3)cc2CC(C)(C)C)c1 (stereo not shown) [Example 87, 3-(2-cyanocyclopropyl)-3-(3-(((2′-fluoro-5′-methoxy-2-neopentyl-[1,1′-biphenyl]-4-yl)oxy)methyl)phenyl)propanoic acid]"
11,110%,"COc1ccc(F)c(-c2ccc(OCc3cccc(C(CC(=O)O)C4CC4)c3)nc2CC(C)(C)C)c1 (stereo not shown) [Example 4, 3-cyclopropyl-3-(3-(((6-(2,2-dimethylpropyl)-5-(2-fluoro-5-methoxyphenyl)pyridin-2-yl)oxy)methyl)phenyl)propanoic acid]"
12,110%,"COc1ccc(F)c(-c2ccc(OCc3cccc(C(CC(=O)O)C4CC4)c3)cc2C(F)CC(C)(C)C)c1 (stereo not shown) [Example 94, 3-cyclopropyl-3-(3-(((2′-fluoro-2-(1-fluoro-3,3-dimethylbutyl)-5′-methoxybiphenyl-4-yl)oxy)methyl)phenyl)propanoic acid]"
